# From patent US20070259939A1, “USING NALTREXONE AS A MULTI-PURPOSE HEALTH SUPPLEMENT TO IMPROVE THE HUMAN CONDITION AND PREVENTING MULTIPLE DISEASES AND INFIRMITIES BY STIMULATING IMMUNE SYSTEM VITALITY AND ROBUSTNESS” (ACCELERATED TECHNOLOGIES, priority 2006, published 2007)
# Experiments:
# alcohol cravings = assay: inhibition of alcohol cravings by low dose naltrexone; type: in vivo, human
# From the text: Naltrexone is already known to help cure addictive behaviors, such as alcoholism, opiate, narcotic and tobacco addiction. With respect to the treatment of alcohol addiction, naltrexone may be effective because it eliminates the neural positive reinforcement normally experienced in the brain by blocking the receptors that provide the stimulatory effect felt from alcohol. As a result of the lack of positive reinforcement, there is no internal incentive to drink alcohol. In a similar manner, in another embodiment of the invention, the daily administration of low dose naltrexone may greatly reduce or eliminate the tendency to engage in addictive behavior by preventing its onset. This may be accomplished by diminishing any potential internal rewards for using chemical substances in the first place. […] The diminished desire for alcohol resulting from a low dose of naltrexone may be effective for more than 24 hours, thus for example a dose administered at 7:00 pm one evening may continue to inhibit alcohol cravings throughout the following evening. A person in need of curbing an alcoholic appetite may take a pill, either before or along with the drink, and discover no desire for a second or third drink. To further eliminate an alcoholic appetite, a series of 1.5 mg naltrexone doses may be taken without alcohol, starting for example at about 6:00 pm.
# cancer patients = conditions: low dose naltrexone; cited from earlier work
# beta-endorphins = conditions: small doses each night; following days; patients who initially had deficient endorphin levels; cited from earlier work
# [1] = low dose levels; cited from earlier work
compound,measurement,setting,value
O=C1CC[C@@]2(O)[C@H]3Cc4ccc(O)c5c4[C@@]2(CCN3CC2CC2)[C@H]1O5 [naltrexone],effect on alcohol cravings,"alcohol cravings; low dosage, around 4.5 mg",greatly inhibit alcohol cravings
same,duration of diminished desire for alcohol,alcohol cravings; low dose of naltrexone,more than 24 hours
same,cancer patients with a positive effect (for example stopping the spread of tumors),cancer patients,≤ 65%
same,cancer patients with remission,cancer patients,30%
same,increase in beta-endorphins circulating in the blood,beta-endorphins,200-300%
same,side effects,[1],not known to have any important side effects
